B1: Activin A: a member of the TGFβ family (protein, UniProt P08476 311-426, looked up)
Inhibin beta A chain: GLECDGKVNICCKKQFFVSFKDIGWNDWIIAPSGYHANYCEGECPSHIAGTSGSSLSFHSTVINHYRMRGHSPFANLKSCCVPTKLRPMSMLYYDDGQNIIKKDIQNMIVEECGCS

What was measured:
[1] = test system: GATA1 bipotential progenitor (MEP progenitor) from human cord blood CD34+ cells; experiment: HD-DoE 12-factor experiment optimized for maximum expression of HBA1 (stage 2); assay type: cell-based; details: 12-factor model optimized for maximum HBA1 expression; 3 days after stage 1
Method: To engineer the stage 2 media, first CD34+ cells from human cord blood cells were cultured for 5 days in stage 1 media (Table 1), which converts hematopoietic stem cells to a GATA1 bipotential progenitor (MEP progenitor). This progenitor has the potential to differentiate to erythroid and megakaryocyte lineages. To further guide the differentiation of GATA1 bipotential progenitor, an additional HD-DoE experiment was performed. […] The basis of this was a 12-factor HD-DoE experiment with focus on differentiation of cells toward the erythroid lineage for an additional 3 days after termination of stage 1 treatment.
To test the effectors, 96 different combinations of effectors generated using Design-of-Experiments compression through D-optimality were robotically prepared. The effector combinations were prepared in a basal media and were subsequently added to the cells, which were then allowed to differentiate. Three days later RNA extraction was performed, and gene expression was obtained using quantitative PCR analysis. The data were normalized and modeled using partial least squares regression analysis to the effector design, resulting in the generation of gene-specific models, which after model tuning for maximal Q2 predictive power, provided explanation of the effectors ability to control the expression of individual genes, combinatorically, and individually. Solutions within the tested space could then be explored to address desirability.
This model was derived from initial testing of twelve factors including: HB-EGF, Optiferrin, SR1, knockout serum, ibuprofen, GM-CSF, holo-transferrin, EPO, eltrombopag, Neuregulin 1, THI0019 and AICAR.

[2] = test system: MEP progenitor from CD34+ HSCs; experiment: Factor criticality analysis (dynamic profile), stage 1 recipe; assay type: cell-based, human; parameters: unit not given here
Method: (§1) To assess the impact of the elimination of each validated factor identified for the stage 1 and 2 recipes as described in Example 1, dynamic profile analysis was used and compared the expression level of genes of interest in absence of each finalized factor while others are present.
In the stage 1 recipe, each of the five finalized factors was removed while the other four factors remained present and the expression levels of GATA2, GATA1, CD36 and TFRC were assessed compared to the presence of all five factors.

[3] = test system: CD34+ population of cells isolated from cord blood; experiment: HD-DoE 8-factor experiment optimized for maximum expression of GATA1 (stage 1); assay type: cell-based, human; details: for factor contribution: 8-factor model optimized for maximum GATA1 expression, 3-day treatment
Method: The effector combinations were prepared in a basal media and were subsequently added to the cells, which were then allowed to differentiate. […] Solutions within the tested space could then be explored to address desirability.

[4] = test system: erythroid progenitors from GATA1+ MEP cells; experiment: Factor criticality analysis (dynamic profile), stage 2 recipe; assay type: cell-based, human; parameters: unit not given here
Method: as §1
In the stage 2 recipe, each of the five finalized factors was removed while the other four factors remained present and the expression levels of GATA1, HBA1, GYPA (CD235) and TFRC were assessed compared to the presence of all five factors. When EPO was removed, the values of GATA1 decreased from 1386 to 736, the values of HBA1 changed from 700 to 285, the values of GYPA decreased from 345 to 61 and the values of TFRC dropped from 2943 to 898. All changes represent a significant loss of expression of a desired gene.

CD34 cells = experiment: HD-DoE 6-factor experiment optimized for maximum expression of GATA1; assay type: cell-based, human
Method: To test whether EPO or other commonly used cytokines are required for GATA1 induction, we conducted experiments with 6 factors in a range of concentrations. On this experiment CD34 cells were thawed and kept overnight in media containing SCF 10 ng/mL. On the next day, 48 different combinations of effectors were added to the cells, and SCF 5 ng/mL was kept in all the wells.

HBA expression = experiment: Refinement of stage 2 recipe: HBA expression modelling and cell number; assay type: cell-based, human; details: higher concentration: holo-transferrin 600 ug/mL, EPO 4 U/mL; or supplement added
Method: In order to refine the stage 2 recipe, more modelling experiments were conducted using the same factors as the stage 2 recipe but testing different concentrations of critical factors such as EPO and holo-transferrin. Additionally, because lipid inputs are critical for RBC differentiation, a commercial cholesterol supplement (Sigma) was tested.

[5] = named factor removed, other four present

| Molecule | factor contribution [1] | GATA1 expression ([2]; all five factors present) | GATA1 expression [2, 5] | factor contribution [3] | HBA1 expression ([4]; all five factors present) | HBA1 expression [4, 5] | GYPA expression ([4]; all five factors present) | GYPA expression [4, 5] | further results |
| --- | --- | --- | --- | --- | --- | --- | --- | --- | --- |
| CC(C)n1cnc2c(NCCc3ccc(O)cc3)nc(-c3csc4ccccc34)nc21 [SR1] | 7 | 510 | 410 | 6 | 700 | 597 |  |  | TFRC expression ([2]; all five factors present): 970; TFRC expression [2, 5]: 570 |
| EPO: EPOR agonist, erythropoietin | 31 |  |  |  | 700 | 285 | 345 | 61 | requirement for GATA1 induction (CD34 cells; 6-factor model): not required for GATA1 induction; HBA expression (HBA expression): higher HBA expression; GATA1 expression ([4]; all five factors present): 1386; TFRC expression ([4]; all five factors present): 2943; GATA1 expression [4, 5]: 736; TFRC expression [4, 5]: 898 |
| NC(=O)c1ncn([C@@H]2O[C@H](CO)[C@@H](O)[C@H]2O)c1N [AICAR, reference compound] | 9 |  |  |  | 689 | 569 | 337 | 256 |  |
| C=C1C(=O)O[C@@H]2C[C@@]3(C)CCC[C@H](C)C3=C[C@H]12 [Alantolactone] |  | 510 | 460 | 8 |  |  |  |  | impact on GATA1 expression ([3]; 8-factor model, GATA1): supportive of GATA1 induction |
| NC1(c2ccc(-c3nc4ccn5c(=O)[nH]nc5c4cc3-c3ccccc3)cc2)CCC1 [MK2206] |  | 510 | 400 | 17 |  |  |  |  |  |
| holotransferrin: Iron source |  |  |  |  | 688 | 500 | 330 | 170 | HBA expression (HBA expression): higher HBA expression; GATA1 expression ([4]; all five factors present): 1370; TFRC expression ([4]; all five factors present): 2883; GATA1 expression [4, 5]: 967; TFRC expression [4, 5]: 1703 |
| B1 |  |  |  |  |  |  |  |  | factor contribution (CD34 cells; 6-factor model optimized for maximum GATA1 expression, SCF 5 ng/mL in all wells): 33 |

From patent US20230174938A1, “METHODS AND COMPOSITIONS FOR GENERATING HUMAN ERYTHROID PROGENITOR CELLS” (Trailhead Biosystems Inc., priority 2021, published 2023)
